In patent publication US8841349B2, “Stabilize compositions based on monoalkyl glycerol ethers and aromatic alcohols” (Air Liquide Sante (International), priority 2003, dated 2014):

Tested on: mixed suspension (Group 5) of the four test microbe groups
Assay: Koko test (pack preservation, repeated inoculation challenge) of aqueous working solutions in Ringer's solution
Format: cell-based
Conditions: for Koko results: microbial growth of streaks, inoculation cycle 1: inoculation cycle 1; Ringer's solution as product; use concentration 0.5% for 1), 0.6% for 2), 2.0% for 3) and 4); for Koko results: microbial growth of streaks, inoculation cycle 2: inoculation cycle 2; Ringer's solution as product; use concentration 0.5% for 1), 0.6% for 2), 2.0% for 3) and 4); for Koko results: microbial growth of streaks, inoculation cycle 3: inoculation cycle 3; Ringer's solution as product; use concentration 0.5% for 1), 0.6% for 2), 2.0% for 3) and 4); for Koko results: microbial growth of streaks, inoculation cycle 4: inoculation cycle 4; Ringer's solution as product; use concentration 0.5% for 1), 0.6% for 2), 2.0% for 3) and 4); for Koko results: microbial growth of streaks, inoculation cycle 5: inoculation cycle 5; Ringer's solution as product; use concentration 0.5% for 1), 0.6% for 2), 2.0% for 3) and 4); for Koko results: microbial growth of streaks, inoculation cycle 6: inoculation cycle 6; Ringer's solution as product; use concentration 0.5% for 1), 0.6% for 2), 2.0% for 3) and 4)
Experimental: Unless expressly stated otherwise, all of the percentages are percentages by weight. Aqueous working solutions were investigated using Ringer's solution as product in the Koko test.
Using the described method, the effectiveness of chemical preservatives (stabilizer compositions) is tested with regard to the pack preservation for cosmetic formulations. For this purpose, the compositions to be investigated are added in varying concentrations to the unstabilized samples in various experimental batches. A continuous microbial burden is achieved by periodically inoculating the experimental batches. In parallel to the inoculation, streaks of each of the individual batches are in each case made immediately beforehand. Assessment is made by reference to the microbial growth of the streaks.
• CSA (casein peptone soya flour peptone agar) • SA (Sabouraud dextrose agar) • SA slant tube • CSA+TLSH (No. 4) • SA-TLSH (No. 10) • NaCl (physiological sodium chloride solution, […]) • TLSH (disinhibiting medium for bacteria=Tween 80+lecithin+saponin+histidine)
The test microbe used was the mixed suspension (Group 5) of the following four test microbe groups.
Cultivation of the Test Microbes • Bacteria: streaking using a sterile glass rod on CS agar • Yeasts: streaking using a sterile glass rod on SA agar • Fungi: Aspergillus niger is transferred to 4 SA slant tubes • Penicillium funiculosum is transferred to SA agar plates
All of the test microbes are incubated for one week at 25° C.±2° C. The test microbes are replaced at intervals of 3 to 4 months.
The bacteria are rinsed off with 5 ml of NaCl solution in each case, filtered through a glass funnel containing glass wool into a 100 ml measuring cylinder and made up to 100 ml with NaCl. The bacterial suspensions have a titre of about 10^9 CFU/ml.
Three Aspergillus niger slant tubes are each shaken with 3 ml of NaCl solution on a Heldolph stirrer and introduced through a glass funnel containing glass wool. The yeast Candida albicans is rinsed off with 5 ml of NaCl and likewise poured through the glass funnel. 5 ml of a Penicillium funiculosum suspension are added to this mixture and made up to 100 ml with NaCl. The fungal suspension has a titre of about 10^5-9 CFU/ml.
The inoculation solution actually used is prepared as described above (Groups 1 to 4). After rinsing off, these are mixed and then made up to 100 ml with NaCl.
The microbial suspension was transferred to sterile glass-stoppered bottles containing glass beads and shaken for 5 min at a shaking frequency (to-and-fro movement) of 200 units/min. The microbial content of the mixed suspension is 10^9 CFU/ml. The suspension should be used on the day of preparation, but can also be used after 24 hours upon storage in a refrigerator.
In separate batches, 25 g of the cosmetic to be tested are mixed in each case with the compositions to be investigated in varying concentrations. The growth control used in each case is an unstabilized product sample. The test batches are streaked onto CSA/TLSH and SA/TLSH once per week following thorough stirring using a sterile glass rod, the first streaking being carried out directly prior to reinoculation. All of the samples are inoculated with 0.1 ml of the respective microbial suspension and thoroughly stirred.
The microbial growth of the streaks is assessed after incubation for three days at 25° C.±2° C. To be on the safe side, negative streaks are observed for a further two days and reassessed. The stabilizing action of the individual product concentration is assessed in a semiqualitative method by means of the growth of the individual streaks.
The test is usually carried out over six inoculation cycles and terminated after massive growth on two occasions.
A composition is considered good if it exists under the laboratory conditions given above for a period of six weeks without microbial attack of the sample batches, i.e. even after the sixth inoculation, no microbial growth can be detected.

Row | SMILES | Koko results: microbial growth of streaks, inoculation cycle 1 | Koko results: microbial growth of streaks, inoculation cycle 2 | Koko results: microbial growth of streaks, inoculation cycle 3 | Koko results: microbial growth of streaks, inoculation cycle 4 | Koko results: microbial growth of streaks, inoculation cycle 5 | Koko results: microbial growth of streaks, inoculation cycle 6
1 | O=C([O-])CNCO.[Na+] [1), sodium hydroxymethyl-glycinate] | +Y | +Y | +Y | +Y | +Y | +Y
2 | CC1(C)C(=O)N(CO)C(=O)N1CO [2), dimethyldimethylolhydantoin] | +B | ++B | ++B | ++B | ++B | ++B
